Laboratory results as given in publication PMC8430323, “Microbial Enzymatic Synthesis of Amikacin Analogs With Antibacterial Activity Against Multidrug-Resistant Pathogens” (Frontiers in Microbiology, 2021).

Legend:
AAC(6′)-APH(2^″) = biological target: T1, AAC(6′)-APH(2^″) (Staphylococcus aureus, UniProt P0A0C1); test: UPLC-qTOF-HR-MS of […]'-N-acylation product, structure confirmed by NMR; format: biochemical; conditions: acyl donor; one-pot with GenN, amikacin 2 mM, SAM 2 mM, 50 mM Tris-HCl pH 7.5, 30 °C, 12 h, enzyme 500 μM
T1 construct: gene aacA-aphD; codon-optimized synthetic gene in pET15b, His-tagged, expressed in E. coli BL21(DE3), Ni-NTA purified; bifunctional enzyme
T1 sequence (P0A0C1 whole entry): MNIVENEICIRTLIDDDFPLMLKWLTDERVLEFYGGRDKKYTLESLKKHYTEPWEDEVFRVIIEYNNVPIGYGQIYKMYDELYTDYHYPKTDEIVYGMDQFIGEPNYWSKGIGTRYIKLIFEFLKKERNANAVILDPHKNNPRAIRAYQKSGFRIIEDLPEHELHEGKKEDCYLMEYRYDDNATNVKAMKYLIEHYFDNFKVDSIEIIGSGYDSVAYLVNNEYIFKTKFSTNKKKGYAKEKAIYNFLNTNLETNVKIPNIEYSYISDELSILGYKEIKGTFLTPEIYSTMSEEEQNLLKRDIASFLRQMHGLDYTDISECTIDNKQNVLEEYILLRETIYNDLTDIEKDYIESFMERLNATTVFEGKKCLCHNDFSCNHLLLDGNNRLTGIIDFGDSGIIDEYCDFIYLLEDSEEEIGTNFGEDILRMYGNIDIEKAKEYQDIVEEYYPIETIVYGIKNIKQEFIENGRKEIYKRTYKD

GenN = biological target: T2, GenN (Micromonospora echinospora, UniProt Q2MG72); test: UPLC-qTOF-HR-MS of methylation product, structure confirmed by NMR; format: biochemical; conditions: SAM 2 mM, amikacin 2 mM, 50 mM Tris-HCl pH 7.5, 30 °C, 12 h, enzyme 500 μM
T2 construct: codon-optimized synthetic gene in pJExpress404, His-tagged, expressed in E. coli BL21(DE3), Ni-NTA purified
T2 sequence (Q2MG72 1-321): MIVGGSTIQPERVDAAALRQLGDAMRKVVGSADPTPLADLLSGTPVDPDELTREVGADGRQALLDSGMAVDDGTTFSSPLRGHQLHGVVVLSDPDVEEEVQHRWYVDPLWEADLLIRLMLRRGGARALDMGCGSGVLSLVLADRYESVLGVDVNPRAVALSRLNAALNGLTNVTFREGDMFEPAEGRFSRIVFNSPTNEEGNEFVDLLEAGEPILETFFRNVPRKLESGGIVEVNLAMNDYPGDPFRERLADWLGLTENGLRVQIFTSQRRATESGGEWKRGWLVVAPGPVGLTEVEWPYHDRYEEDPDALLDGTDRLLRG

Structure (SMILES)	conversion yield (AAC(6′)-APH(2^″))	conversion yield (GenN)
CC(=O)SCCNC(=O)CCNC(=O)[C@H](O)C(C)(C)COP(=O)(O)OP(=O)(O)OC[C@H]1O[C@@H](n2cnc3c(N)ncnc32)[C@H](O)[C@@H]1OP(=O)(O)O [acetyl-CoA]	Incubation with acetyl-CoA and propionyl-CoA as cosubstrates led to the formation of new UPLC peaks	
NCC[C@H](O)C(=O)N[C@@H]1C[C@H](N)[C@@H](O[C@H]2O[C@H](CN)[C@@H](O)[C@H](O)[C@H]2O)[C@H](O)[C@H]1O[C@H]1O[C@H](CO)[C@@H](O)[C@H](N)[C@H]1O [amikacin]		Amikacin was an excellent substrate for SAM-dependent methylation by GenN
CCC(=O)SCCNC(=O)CCNC(=O)[C@H](O)C(C)(C)COP(=O)(O)OP(=O)(O)OC[C@H]1O[C@@H](n2cnc3c(N)ncnc32)[C@H](O)[C@@H]1OP(=O)(O)O [propionyl-CoA]	Incubation with acetyl-CoA and propionyl-CoA as cosubstrates led to the formation of new UPLC peaks	
